Measured values reported in ChEMBL document CHEMBL1201862, “PubChem BioAssay data set” (2004).
Calls of active or inactive are those of the source.

Assays:
[1] = target: T1, Microphthalmia-associated transcription factor (Homo sapiens, UniProt O75030); test: TRPM1 promoter luciferase signal decrease, dose response, MITF inhibitor project, cell-based, SK-MEL-5, cherry-picked, set 3 (AID 493073); assay type: functional
T1 sequence (O75030 whole entry): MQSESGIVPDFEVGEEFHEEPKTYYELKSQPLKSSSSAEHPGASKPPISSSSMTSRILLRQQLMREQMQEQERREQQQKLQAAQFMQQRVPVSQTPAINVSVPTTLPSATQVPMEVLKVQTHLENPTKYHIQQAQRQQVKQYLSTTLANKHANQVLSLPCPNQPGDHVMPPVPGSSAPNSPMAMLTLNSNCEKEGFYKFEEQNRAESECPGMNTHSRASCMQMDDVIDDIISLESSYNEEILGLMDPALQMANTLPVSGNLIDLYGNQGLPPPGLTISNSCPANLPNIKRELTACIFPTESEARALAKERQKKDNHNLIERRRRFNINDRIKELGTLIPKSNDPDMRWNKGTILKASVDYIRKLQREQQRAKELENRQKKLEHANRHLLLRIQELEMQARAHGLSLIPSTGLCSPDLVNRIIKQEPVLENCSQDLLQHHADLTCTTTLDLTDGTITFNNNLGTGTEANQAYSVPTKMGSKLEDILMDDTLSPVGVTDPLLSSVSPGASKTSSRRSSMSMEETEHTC

[2] = intracellular Trypanosoma cruzi inhibitors in host cells – cell-based, plate reader, cherry-pick samples, set 3, dose response (AID 651818); assay type: functional;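 note: compounds incubated with infected cells for about four days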
[3] = THP-1 cell cytotoxicity, dose response, cytotoxicity control for non-replicating M. tuberculosis project (AID 489025); assay type: functional
[4] = Vero E6 cell cytotoxicity, dose response, cytotoxicity control for non-replicating M. tuberculosis project, secondary assay (AID 492998); assay type: functional, VeroE6; conditions: Vero C1008
[5] = cells; assay type: functional
[6] = inhibitors of firefly luciferase expression or activity, dose response, H4 neuroglioma cells, luminescence (AID 1990); assay type: functional, cell-based
[7] = Luminescence Cell-Based Dose Response HTS to Identify Inhibitors of 5'UTR Stem-Loop Driven Prion Protein mRNA Translation in H4 Neuroglioblastoma Cells. [Related pubchem assays: 1827 (Project Summary), 1813 (Primary HTS)]; assay type: functional
[8] = inhibitors of SNCA 5'UTR-driven reporter translation, confirmation, H4 neuroglioma cells, luminescence (AID 1988); assay type: functional, cell-based
[9] = test system: H9c2; test: cells; assay type: functional, cell-based; conditions: Rattus norvegicus, H9c2, Myocardium;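 note: confirmatory concentration-response retest of ultra-high-throughput screening hits for modulation of myocardial damage; cell death induced by hydrogen peroxide oxidative stress; compound pretreatment for 60 min then peroxide exposure for 2 h; potency is for protecting the cells against peroxide damage rather than for killing them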
[10] = test system: P388/ADR; test: cells; assay type: functional; conditions: Mus musculus
[11] = test system: SN12K1; test: cells; assay type: functional; conditions: Homo sapiens
[12] = test system: P388; test: cells; assay type: functional; conditions: Mus musculus
[13] = target: Paired box protein Pax-8 (Homo sapiens, UniProt Q06710); test: inhibitors of PAX8-driven TPO luciferase reporter, dose response, RMG-I cells, cherry-pick (AID 687027); assay type: functional, cell-based;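 note: luciferase reporter driven by Pax8 target thyroperoxidase promoter measured by SteadyGlo luminescence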
Sequence of Paired box protein Pax-8 (Q06710 whole entry): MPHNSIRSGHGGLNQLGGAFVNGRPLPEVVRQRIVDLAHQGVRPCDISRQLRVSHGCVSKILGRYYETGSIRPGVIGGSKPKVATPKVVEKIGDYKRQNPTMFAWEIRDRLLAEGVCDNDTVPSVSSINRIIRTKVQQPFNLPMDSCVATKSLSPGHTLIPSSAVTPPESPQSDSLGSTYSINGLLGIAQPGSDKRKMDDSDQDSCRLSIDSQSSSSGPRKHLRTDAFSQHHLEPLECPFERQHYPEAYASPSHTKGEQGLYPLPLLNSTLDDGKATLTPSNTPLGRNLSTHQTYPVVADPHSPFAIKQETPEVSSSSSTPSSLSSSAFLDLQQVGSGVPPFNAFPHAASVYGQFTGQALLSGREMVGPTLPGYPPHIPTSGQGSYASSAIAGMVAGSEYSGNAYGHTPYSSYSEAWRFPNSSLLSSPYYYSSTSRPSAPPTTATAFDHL

[14] = test system: Streptococcus sp. 'group A'; test: growth inhibition of control SK(-) GAS strain, dose response, counter-screen for streptokinase expression inhibitor project, luminescence, kanamycin, BacTiterGlo, confirmation (AID 1900); assay type: functional, organism-based
[15] = target: T2, Streptokinase A (Streptococcus pyogenes serotype M1, UniProt P10520); test: S. pyogenes streptokinase expression inhibitors, potency, dose response, plasminogen activation absorbance, OD405 (AID 1914); assay type: functional, Streptococcus pyogenes M1 GAS;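 note: secreted streptokinase activity via plasminogen activation per viability signal from cell pellet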
T2 sequence (P10520 whole entry): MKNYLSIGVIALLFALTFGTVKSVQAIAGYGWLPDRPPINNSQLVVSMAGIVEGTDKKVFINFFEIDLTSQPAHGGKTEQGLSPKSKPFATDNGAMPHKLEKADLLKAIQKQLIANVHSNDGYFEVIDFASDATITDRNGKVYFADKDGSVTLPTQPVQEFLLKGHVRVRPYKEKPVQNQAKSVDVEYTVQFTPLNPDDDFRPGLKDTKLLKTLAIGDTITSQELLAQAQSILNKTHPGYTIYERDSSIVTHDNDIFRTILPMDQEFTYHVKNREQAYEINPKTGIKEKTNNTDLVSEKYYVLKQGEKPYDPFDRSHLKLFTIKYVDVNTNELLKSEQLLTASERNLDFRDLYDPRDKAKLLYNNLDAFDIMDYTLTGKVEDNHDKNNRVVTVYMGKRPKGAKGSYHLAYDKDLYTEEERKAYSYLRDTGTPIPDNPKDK

[16] = test system: Streptococcus; test: Group A Streptococcus viability loss, dose response, counter-screen for streptokinase expression inhibitor project, luminescence, BacTiterGlo (AID 1915); assay type: functional, organism-based;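 note: potency for reduction of bacterial viability or growth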
[17] = inhibitors of HIV Env-driven cell fusion, dose response, cherry-pick (AID 652057); assay type: functional, cell-based
[18] = ZM109 Env clade C HIV-1 fusion inhibitors, dose response, HeLa effector, CEM target cells, luciferase, cherry-pick (AID 652058); assay type: functional, cell-based
[19] = off-target signal loss in HeLa-CEM21 co-culture – HeLa F-luc CTL cells, cherry-picked, counter-screen for HIV-1 Env fusion inhibitor project, dose response (AID 652040); assay type: functional, cell-based;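 note: potency for signal decrease marking cytotoxic or nonspecific inhibition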
[20] = inhibitors of clade B AD8 Env fusion, dose response, cell-based, cherry-pick (AID 652062); assay type: functional;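 note: luciferase signal from cell-cell fusion driven by HIV-1 clade B AD8 Env; potency is for inhibitors of fusion seen as a drop in luminescence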

## COc1ccc(CCn2c(=S)[nH]c3cc(C(=O)NCc4ccco4)ccc3c2=O)cc1OC
[1]
  AC50: 17.7 µM (active)

## Cc1ccc(S(=O)(=O)Nc2ccc3c(c2)CC(=O)N([C@@H](C)CO)C[C@H](C)[C@@H](CN(C)Cc2ccc(C(=O)Nc4ccccc4N)cc2)O3)cc1
[2]
  AC50: 2.74 µM (active)

## Cc1ccc(C)c(-c2nnc(NC(=O)c3ccc([N+](=O)[O-])o3)o2)c1
[3]
  CC50: 11.7 µM (active)
[4]
  CC50: 11.6 µM (active)
[5]
  IC50: < 0.1 µM (active)

## C[C@@H]1CN([C@@H](C)CO)C(=O)c2cccc(NC(=O)c3nc4ccccc4s3)c2O[C@@H]1CN(C)Cc1ccc(C(=O)Nc2ccccc2N)cc1
[2]
  AC50: 2.88 µM (active)

## COc1ccc(S(=O)(=O)Nc2ccc3c(c2)CC(=O)N([C@H](C)CO)C[C@@H](C)[C@H](CN(C)Cc2ccc(Cl)c(Cl)c2)O3)cc1
[2]
  AC50: 1.94 µM (active)

## COc1cc(OC)cc(C(=O)NNC(=O)c2ccccn2)c1
[6]
  EC50: 11.6 µM (active)
[7]
  EC50: 11.2 µM (active)
[8]
  EC50: > 120 µM (not active)
[3]
  CC50: 10.6 µM (active)
[4]
  CC50: 12.6 µM (active)
[5]
  IC50: 9.73 µM (active)
[9]
  IC50: > 79 µM (inactive)

## O=C(CC1=NCCN1)c1ccccc1
[10]
  GI50: 705 µM (inactive)
[11]
  GI50: > 750 µM (inactive)
[12]
  GI50: > 750 µM (inactive)

## C[C@@H]1CN([C@H](C)CO)C(=O)Cc2cc(NC(=O)Nc3ccc(F)cc3)ccc2O[C@@H]1CN(C)Cc1ccc(Cl)c(Cl)c1
[2]
  AC50: 4.89 µM (active)
[13]
  AC50: 18.4 µM (active)

## O=C(NNC1=Nc2ccccc2SC1)c1ccc(F)cc1
[14]
  EC50: 3.72 µM (active)
[15]
  EC50: > 150 µM (not active)
[16]
  EC50: 15.6 µM (active)
[3]
  CC50: > 40 µM (active)
[4]
  CC50: > 20 µM (active)
[5]
  IC50: 23.5 µM (active)

## COc1ccc(N2C(=O)N3[C@H](c4ccc(Cl)cc4)[C@@H]4C(=O)N(C5CCCCC5)C(=O)[C@@H]4[C@]3(C)C2=O)cc1
[17]
  AC50: 2.73 µM (active)
[18]
  AC50: 3.16 µM (active)
[19]
  AC50: 3.54 µM (active)
[20]
  AC50: 5.1 µM (active)
